{"source": "patent US20200155731A1", "about": "“DEVICE AND METHOD FOR PROMOTING RAPID STRUT COVERAGE AND VASCULAR ENDOTHELIAL COVERAGE” (priority 2017, published 2020)", "key": {"human VSMC [1]": {"system": "human VSMC", "test": "VSMC proliferation in bottles containing human VSMC, gene silencers vehicle lentivirus and plasmid", "format": "cell-based", "details": "Experiment 2; lentivirus vehicle for siRNA; FIG. 1", "experimental": "(§1) Therefore, Experiment 2 was carried out with the following groups: lentivirus+gene silencer TNFRSF11B-siRNA, lentivirus+gene silencer NCF4-siRNA, full control (no vehicle and no drug), lentivirus+gene silencer SM22a-siRNA+glyceraldehyde 3-phosphate dehydrogenase (GAPDH) (vehicle control 1), lentivirus+gene silencer MYH11-siRNA+GAPDH (vehicle control 2), sirolimus (drug control 1), and paclitaxel (drug control 2).\n(§2) TNFRSF11B-siRNA and NCF4-siRNA are gene silencers of the TNFRSF11B and NCF4 genes, respectively. The delivery system of gene silencers was developed by inserting the respective gene silencers in a plasmid which is carried by a lentivirus. Lentivirus particles are intracellular transduction-ready viruses containing plasmids with gene silencers. After transduction, cells express permanently gene silencers. The density of cell cultures 24 hours before transfection was 2×10^5 cells/10 cm2 in culture medium. […]\n(§3) Two control groups containing a lentivirus and a gene silencer of smooth muscle protein 22α (SM22α) or smooth muscle myosin heavy chain (MYH11) were used to assess the vehicle. […] Thus, said two gene silencers, SM22α-siRNA and MYH11-siRNA, were marked with glyceraldehyde 3-phosphate dehydrogenase (GAPDH), called bioconjugates, to ensure by means of fluorescence microscopy that the gene silencers effectively entered VSMC and EC. […]"}, "human vascular EC": {"system": "human vascular EC", "test": "EC proliferation in bottles containing human EC, gene silencers vehicle lentivirus and plasmid", "format": "cell-based", "details": "Experiment 2; lentivirus vehicle for siRNA; FIG. 2", "experimental": "as §1, §2, §3"}, "human VSMC [2]": {"system": "human VSMC", "test": "VSMC proliferation in bottles containing human VSMC, vehicle nanoparticles (DSPE-PEG)", "format": "cell-based", "description": "[…], 2 distearoyl-sn-glycero-3-phosphoethanolamine-Nmethxy (polyethyleneglycol)-2000 (DSPE-PEG) as a drug and gene silencer carrying vehicle instead of lentiviruses and plasmids which were used in the previous experiments. That being so, 8 groups were included for both assessment of nanoparticles as a vehicle and final confirmation of the previous results: control (nanoparticles only), MYH11-siRNA in nanoparticles, CNN1-siRNA in nanoparticles, sirolimus in nanoparticles, paclitaxel in nanoparticles, TNFRSF11B-siRNA in nanoparticles, NCF4-siRNA in nanoparticles, and MYL9-siRNA+GAPDH in nanoparticles.\n(§4) The groups of sirolimus in nanoparticles and paclitaxel in nanoparticles were included to compare the efficacy in inhibiting VSMC proliferation. The groups of NFRSF11B-siRNA in nanoparticles and NCF4-siRNA in nanoparticles were tested again with a different vehicle for final confirmation of the negative results. The group of MYL9-siRNA+GAPDH in nanoparticles was studied to evaluate the vehicle efficacy, that is, to ensure that gene silencers would enter VSMC and EC using nanoparticles as a vehicle. […] MYL9-siRNA gene silencer was marked with GAPDH for later verification of its transfection into the cells through fluorescence microscopy. Finally, pure nanoparticles were used as a vehicle control, that is, with neither drug nor gene silencer. […]"}, "human EC": {"system": "human EC", "test": "EC proliferation in bottles containing human EC, vehicle nanoparticles (DSPE-PEG)", "format": "cell-based", "details": "Experiment 5, control nanoparticles only, FIG. 7", "experimental": "Experiment 5 was carried out by using nanoparticles of 1, 2 distearoyl-sn-glycero-3-phosphoethanolamine-Nmethxy (polyethyleneglycol)-2000 (DSPE-PEG) as a drug and gene silencer carrying vehicle instead of lentiviruses and plasmids which were used in the previous experiments. That being so, 8 groups were included for both assessment of nanoparticles as a vehicle and final confirmation of the previous results: control (nanoparticles only), MYH11-siRNA in nanoparticles, CNN1-siRNA in nanoparticles, sirolimus in nanoparticles, paclitaxel in nanoparticles, TNFRSF11B-siRNA in nanoparticles, NCF4-siRNA in nanoparticles, and MYL9-siRNA+GAPDH in nanoparticles.\nas §4, with “microscopy.” for “microscopy. Finally, pure nanoparticles were used as a vehicle control, that is, with neither drug nor gene silencer.”"}, "swine coronary arteries": {"system": "swine coronary arteries", "test": "In vivo study in swine: stent deployment in the coronary arteries, intravascular ultrasound follow-up", "set-up": "species or system Large White swine", "description": "Experiment 6 was an in vivo study in swine comparing MYH11-siRNA-eluting stent and CNN1-siRNA-eluting stent with bare metal stent and sirolimus-eluting stent.\nEighteen commercially available bare metal stents 2.75×15 mm were covered with MYH11-siRNA in nanoparticles (9 stents) or CNN1-siRNA in nanoparticles (9 stents) using a spray nozzle machine to create an abluminal cover in order to deliver the gene silencers locally in the inner surface of the vessel.\nThe hybrid lipid-polymer nanoparticles loaded with gene silencers (siRNA) were prepared by the nanoprecipitation method. The aqueous phase consisted of the gene silencer solubilized in 10 mL of water Milli Q under stirring and at a bath temperature of 30° C. The organic phase containing a lipid-cationic compound DSPE-PEG-NH2 (1,2-distearoyl-sn-glycero-3-phosphoethanolamine-N-[amino(polyethyleneglycol)-2000] and the PLGA polymer was then injected into the aqueous phase using a 20 G needle, the suspension being kept under moderate stirring for 5 minutes and then concentrated to a final volume of 10 mL in a rotatory evaporator to eliminate the organic solvent and adjust the final concentration. MYH11-siRNA and CNN1-siRNA concentrations ranging from 10 μg/ml to 100 μg/ml were tested.\nAfter covering the abluminal surface of the 18 stents with MYH11-siRNA in nanoparticles (9 stents) or CNN1-siRNA in nanoparticles (9 stents), the stents were left to dry during 60 minutes, packaged in DuPont Tyvek™ and then sterilized with ethylene oxide (EtO) at 50 C.\nNine Large White swine were submitted to stent deployment in the coronary arteries, 1 stent being deployed in the left anterior descendent (LAD), 2 stents in the circumflex (CX) and 1 stent in the right coronary artery (RCA). The stents were deployed in a diameter ratio of 1.1 in relation to the coronary artery diameter, that is, with a mild oversize, in order to stimulate a similar inflammatory reaction that causes in-stent restenosis, to evaluate the efficacy of the gene silencers in controlling in-stent neointimal hyperplasia in a in vivo model. This oversized stent deployment protocol was previously validated (Lowe H C, Schwartz R S, Mac Neill B D, Jang I K, Hayase M, Rogers C, et al. The porcine coronary model of in-stent restenosis: Current status in the era of drug-eluting stents. Catheter Cardiovasclnterv. 2003:60:515-23.)\nThe prolonged time of stent re-endothelialization is the critical point of the current commercially available drug-eluting stents. So sirolimus and analogues as paclitaxel decrease the proliferation of vascular smooth muscle cells preventing in-stent neointimal hyperplasia, as well as suppress the proliferation of endothelial cells prolonging the time of stent re-endothelialization. […] Therefore, in order to evaluate the time of stent re-endothelialization, angiographic and intravascular ultrasound follow-up were scheduled at 30, 90 and 180 days after stent deployment.\nThe intravascular ultrasound analysis was performed tracing 31 frames for each stent with 0.5 mm apart each frame from the distal stent border to the proximal stent border. The data were analysed using one-way ANOVA with Bonferroni post hoc test.\nThe data of intravascular ultrasound in the index procedure as well as the results regarding in-stent neointimal proliferation at 30, 90 and 180 days after stent deployment are shown in table 1, while the comparative data of intravascular ultrasound regarding stent re-endothelialization at 30, 90 and 180 days after stent deployment are shown in table 2."}, "[3]": {"details": "180 days after stent deployment"}, "[4]": {"details": "intravascular ultrasound, follow-up (time not specified)"}}, "data": [{"smiles": "CC(=O)O[C@H]1C(=O)[C@@]2(C)[C@H]([C@H](OC(=O)c3ccccc3)[C@]3(O)C[C@H](OC(=O)[C@H](O)[C@@H](NC(=O)c4ccccc4)c4ccccc4)C(C)=C1C3(C)C)[C@]1(OC(C)=O)CO[C@@H]1C[C@@H]2O", "note": "[paclitaxel]", "values": [{"measurement": "VSMC cell proliferation as compared to the full control group", "setting": "human VSMC [1]", "result": "statistically significant inhibition"}, {"measurement": "EC cell proliferation in relation to the full control group", "setting": "human vascular EC", "result": "statistically significant inhibition"}, {"measurement": "inhibition of VSMC proliferation in comparison with the control", "setting": "human VSMC [2]; Experiment 5, control nanoparticles only, FIG. 6", "result": "significant inhibition"}, {"measurement": "EC proliferation compared to the control group", "setting": "human EC", "result": "statistically significant inhibition"}]}, {"smiles": "CO[C@H]1C[C@@H]2CC[C@@H](C)[C@@](O)(O2)C(=O)C(=O)N2CCCC[C@H]2C(=O)O[C@H]([C@H](C)C[C@@H]2CC[C@@H](O)[C@H](OC)C2)CC(=O)[C@H](C)/C=C(\\C)[C@@H](O)[C@@H](OC)C(=O)[C@H](C)C[C@H](C)/C=C/C=C/C=C/1C", "note": "[sirolimus]", "values": [{"measurement": "human VSMC proliferation", "setting": "human VSMC [2]; Experiment 7, FIG. 8", "result": 19, "unit": "%"}, {"measurement": "Obstruction: average of percentual obstruction in the whole stent length", "setting": "swine coronary arteries; 30 days after stent deployment", "result": "11.4 ± 2.2", "unit": "%"}, {"measurement": "re-endothelialization (stent struts coverage) from intravascular ultrasound", "setting": "swine coronary arteries; 30 days after stent deployment", "result": "48 ± 3.3", "unit": "%"}, {"measurement": "Obstruction: average of percentual obstruction in the whole stent length", "setting": "swine coronary arteries; 90 days after stent deployment", "result": "12.3 ± 2.1", "unit": "%"}, {"measurement": "re-endothelialization (stent struts coverage) from intravascular ultrasound", "setting": "swine coronary arteries; 90 days after stent deployment", "result": "89 ± 3.8", "unit": "%"}, {"measurement": "Obstruction: average of percentual obstruction in the whole stent length", "setting": "swine coronary arteries; [3]", "result": "13.8 ± 2.4", "unit": "% b"}, {"measurement": "re-endothelialization (stent struts coverage) from intravascular ultrasound", "setting": "swine coronary arteries; [3]", "result": 100, "unit": "%"}, {"measurement": "LLL: late lumen loss", "setting": "swine coronary arteries; intravascular ultrasound, follow-up", "result": "0.33 ± 0.12", "unit": "mm"}, {"measurement": "MLA (minimal luminal area) follow-up", "setting": "swine coronary arteries; [4]", "result": "6.21 ± 0.16", "unit": "mm^2 b"}, {"measurement": "MLD (minimal luminal diameter) follow-up", "setting": "swine coronary arteries; [4]", "result": "2.68 ± 0.13", "unit": "mm"}]}]}
